Results from article PMC3317823, “Identification and characterization of a novel thermostable pyrethroid-hydrolyzing enzyme isolated through metagenomic approach” (Microbial Cell Factories, 2012).

Biological target: Sys410 (uncultured bacterium, UniProt H9CDG2)
Experiment: spectrophotometric p-nitrophenol release at […] nm, Michaelis-Menten fit
Conditions: pH 6.5, potassium phosphate 50 mM, 55°C, gum arabic and Triton X-100 in substrate solution

Sequence of Sys410 (H9CDG2 1-280 limits assumed): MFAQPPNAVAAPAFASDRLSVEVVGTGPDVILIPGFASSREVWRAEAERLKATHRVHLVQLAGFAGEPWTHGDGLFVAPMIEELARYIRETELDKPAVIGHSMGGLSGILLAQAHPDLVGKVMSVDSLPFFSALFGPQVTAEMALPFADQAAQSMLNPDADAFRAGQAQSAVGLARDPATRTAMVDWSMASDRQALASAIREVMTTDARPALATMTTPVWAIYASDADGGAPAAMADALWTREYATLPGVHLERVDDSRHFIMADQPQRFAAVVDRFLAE

Km (paper labels caprylate as C6, chain length uncertain) [µM] | Km (paper labels caproate as C8, chain length uncertain) [µM] | SMILES
33.2 ± 2.1 | – | CCCCCCCC(=O)Oc1ccc([N+](=O)[O-])cc1 [C6, ρ-nitrophenyl caprylate]
– | 57.6 ± 1.9 | CCCCCC(=O)Oc1ccc([N+](=O)[O-])cc1 [C8, ρ-nitrophenyl caproate]
